Assay results: article PMC10051798, “Thiosemicarbazide Derivatives Targeting Human TopoIIα and IDO-1 as Small-Molecule Drug Candidates for Breast Cancer Treatment” (International Journal of Molecular Sciences, 2023)
Converted amounts (≈) assume the structure as drawn. “And” between values parts separate entries of the source, which are not always exact repeats. Equal values may be shown once.

Legend:
[1] = target: T1, MDR1 (p-glycoprotein) in MCF-7 cells (Homo sapiens, UniProt P08183); test: MDR transporter activity assay, MDR1 in MCF-7; assay type: cell-based; conditions: MCF-7, 10 µg/mL, 24 h
T1 construct: endogenous in cells; host or cells: MCF-7 and MDA-MB-231 cells
T1 sequence (P08183 whole entry): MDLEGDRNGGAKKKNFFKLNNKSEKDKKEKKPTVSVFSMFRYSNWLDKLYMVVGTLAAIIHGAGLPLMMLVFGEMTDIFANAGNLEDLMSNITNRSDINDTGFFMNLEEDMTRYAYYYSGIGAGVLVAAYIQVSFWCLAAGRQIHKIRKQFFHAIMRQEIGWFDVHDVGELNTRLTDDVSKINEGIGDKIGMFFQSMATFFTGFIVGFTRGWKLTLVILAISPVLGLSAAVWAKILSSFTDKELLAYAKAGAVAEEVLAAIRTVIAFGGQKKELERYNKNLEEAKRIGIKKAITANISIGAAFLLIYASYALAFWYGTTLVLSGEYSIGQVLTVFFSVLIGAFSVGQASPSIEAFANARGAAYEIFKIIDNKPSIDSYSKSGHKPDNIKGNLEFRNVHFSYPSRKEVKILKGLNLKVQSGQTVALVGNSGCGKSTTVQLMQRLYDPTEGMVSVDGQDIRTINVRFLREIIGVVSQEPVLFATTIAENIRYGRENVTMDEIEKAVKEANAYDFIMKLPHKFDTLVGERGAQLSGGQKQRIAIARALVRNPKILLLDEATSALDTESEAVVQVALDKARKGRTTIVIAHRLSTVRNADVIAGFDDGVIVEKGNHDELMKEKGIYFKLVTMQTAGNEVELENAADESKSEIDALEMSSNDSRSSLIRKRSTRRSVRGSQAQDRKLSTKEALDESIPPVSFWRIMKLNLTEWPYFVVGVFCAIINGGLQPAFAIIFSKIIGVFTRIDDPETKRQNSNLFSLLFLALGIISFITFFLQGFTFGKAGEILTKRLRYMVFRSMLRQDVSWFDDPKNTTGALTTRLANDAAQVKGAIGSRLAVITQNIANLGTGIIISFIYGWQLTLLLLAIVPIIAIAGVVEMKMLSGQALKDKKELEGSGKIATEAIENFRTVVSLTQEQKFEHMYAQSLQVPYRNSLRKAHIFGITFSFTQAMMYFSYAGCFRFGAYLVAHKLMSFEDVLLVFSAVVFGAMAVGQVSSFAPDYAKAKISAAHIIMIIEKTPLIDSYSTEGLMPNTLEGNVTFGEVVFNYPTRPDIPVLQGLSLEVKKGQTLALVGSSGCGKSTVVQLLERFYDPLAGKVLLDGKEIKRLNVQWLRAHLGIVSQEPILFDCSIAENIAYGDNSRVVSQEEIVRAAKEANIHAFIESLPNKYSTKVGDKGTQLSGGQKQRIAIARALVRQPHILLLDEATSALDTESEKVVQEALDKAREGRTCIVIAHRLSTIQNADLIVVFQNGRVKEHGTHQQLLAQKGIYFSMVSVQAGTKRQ
Procedure: (§1) An MDR Assay kit (Abcam, Cambridge, UK) was used following the manufacturer’s instructions. MCF-7 and MDA-MB-231 cells were incubated with compounds 1–3 (10 μg/mL and 20 μg/mL). After 24 h of incubation, the test cells were washed twice with 5 mL of PBS by centrifugation at 1200 rpm for 10 min. The supernatants were discarded and the cells were counted using a Scepter 3.0 handheld automated cell counter (Milipore, Burlington, MA, USA). Then, each of the tested samples was divided into three parts and analyzed. Tomeasure the activity of MDR1, MRP1 and BCRP (tubes 1–12), 5 μL of verapamil (MDR1 inhibitor) was added into tubes 1–3, 5 μL of MK-571 (MRP1 inhibitor) was added into tubes 4–6, 5 μL of noviobiocin (BCRP inhibitor) was added into tubes 7–9 and 125 μL DMEM with 1 μL of DMSO was added into tubes 10–12. Then, the samples were incubated at 37 °C for five minutes. After this time, 125 μL of Efflux Green Detection Reagent was added into tubes 1–12 and the samples were incubated for 30 min at 37 °C. After 25 min of incubation, 5 μL of PI was added to each tube. Thereafter, the samples were centrifuged for 10 min at 1200 rpm. The supernatants were discarded and the cells were resuspended in 500 μL of PBS and run on the flow cytometer immediately. Measurements were conducted on a BD FACSCanto II flow cytometer using FACSDiva software (version 6.1.3, BD Biosciences, San Diego, CA, USA). […]

BCRP in MDA-MB-231 cells = target: T2, BCRP in MDA-MB-231 cells (Homo sapiens, UniProt Q9UNQ0); test: MDR transporter activity assay, BCRP in MDA-MB-231; assay type: cell-based; conditions: 24 h
T2 construct: endogenous in cells; host or cells: MCF-7 and MDA-MB-231 cells
T2 sequence (Q9UNQ0 1-655): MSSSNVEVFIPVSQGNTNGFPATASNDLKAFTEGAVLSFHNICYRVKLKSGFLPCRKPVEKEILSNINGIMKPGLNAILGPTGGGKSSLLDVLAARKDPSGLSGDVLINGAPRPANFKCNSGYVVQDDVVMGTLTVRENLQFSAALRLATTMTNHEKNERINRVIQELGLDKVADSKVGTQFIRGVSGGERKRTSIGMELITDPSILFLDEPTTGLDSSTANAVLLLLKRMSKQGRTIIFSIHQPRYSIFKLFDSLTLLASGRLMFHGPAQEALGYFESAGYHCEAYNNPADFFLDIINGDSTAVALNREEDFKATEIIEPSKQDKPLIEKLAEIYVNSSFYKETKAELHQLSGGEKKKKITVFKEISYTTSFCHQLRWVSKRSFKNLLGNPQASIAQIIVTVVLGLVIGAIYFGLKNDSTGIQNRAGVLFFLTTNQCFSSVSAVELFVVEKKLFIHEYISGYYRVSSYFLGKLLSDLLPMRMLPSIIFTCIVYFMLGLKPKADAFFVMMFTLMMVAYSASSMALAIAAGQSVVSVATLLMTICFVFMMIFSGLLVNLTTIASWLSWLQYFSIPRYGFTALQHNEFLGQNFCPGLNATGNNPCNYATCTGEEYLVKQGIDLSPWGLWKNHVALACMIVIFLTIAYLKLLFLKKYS
Procedure: (§2) An MDR Assay kit (Abcam, Cambridge, UK) was used following the manufacturer’s instructions. MCF-7 and MDA-MB-231 cells were incubated with compounds 1–3 (10 μg/mL and 20 μg/mL). After 24 h of incubation, the test cells were washed twice with 5 mL of PBS by centrifugation at 1200 rpm for 10 min. The supernatants were discarded and the cells were counted using a Scepter 3.0 handheld automated cell counter (Milipore, Burlington, MA, USA). Then, each of the tested samples was divided into three parts and analyzed. Tomeasure the activity of MDR1, MRP1 and BCRP (tubes 1–12), 5 μL of verapamil (MDR1 inhibitor) was added into tubes 1–3, 5 μL of MK-571 (MRP1 inhibitor) was added into tubes 4–6, 5 μL of noviobiocin (BCRP inhibitor) was added into tubes 7–9 and 125 μL DMEM with 1 μL of DMSO was added into tubes 10–12. Then, the samples were incubated at 37 °C for five minutes. After this time, 125 μL of Efflux Green Detection Reagent was added into tubes 1–12 and the samples were incubated for 30 min at 37 °C. After 25 min of incubation, 5 μL of PI was added to each tube. Thereafter, the samples were centrifuged for 10 min at 1200 rpm. The supernatants were discarded and the cells were resuspended in 500 μL of PBS and run on the flow cytometer immediately. Measurements were conducted on a BD FACSCanto II flow cytometer using FACSDiva software (version 6.1.3, BD Biosciences, San Diego, CA, USA). […] The calculations followed these formulas:MAFMDR1= 100 × (FMDR1 − F0)/FMDR1 MAFMRP= 100 × (FMRP − F0)/FMRP MAFBCRP= 100 × (FBCRP − F0)/FBCRP
(§3) • FMDR—MFI with MDR1 inhibitor (verapamil) • FMRP—MFI with MRP inhibitor (MK-571) • FBCRP—MFI with BCRP inhibitor (novobiocin) • F0—MFI without inhibitor
(§4) The theoretical range of the MAF values is between 0 and 100.

[2] = target: T3, MDR1 (p-glycoprotein) in MDA-MB-231 cells (Homo sapiens, UniProt P08183); test: MDR transporter activity assay, MDR1 in MDA-MB-231; assay type: cell-based; conditions: 24 h
T3 construct: endogenous in cells; host or cells: MCF-7 and MDA-MB-231 cells
T3 sequence (P08183 whole entry): as the sequence (P08183 whole entry) above
Procedure: as §2, §3, §4

MRP1/2 in MCF-7 cells = test: MDR transporter activity assay, MRP in MCF-7; assay type: cell-based, human; conditions: MCF-7, 10 µg/mL, 24 h
Procedure: as §1

BCRP in MCF-7 cells = target: T4, BCRP in MCF-7 cells (Homo sapiens, UniProt Q9UNQ0); test: MDR transporter activity assay, BCRP in MCF-7; assay type: cell-based; conditions: MCF-7, 10 µg/mL, 24 h
T4 construct: endogenous in cells; host or cells: MCF-7 and MDA-MB-231 cells
T4 sequence (Q9UNQ0 1-655): T2 sequence (Q9UNQ0 1-655)
Procedure: as §1

MDA-MB-231 cells = test system: MDA-MB-231 cells; set-up: method as in PMID 36345785; conditions: MTT; cited from earlier work
MCF-10A cells = test: MTT viability assay, normal breast epithelial cells; assay type: cell-based, human; conditions: for IC50: Homo sapiens, MCF-10A, MTT, 24 h; for SIMCF-7 (selectivity index): IC50 MCF-10A/IC50 MCF-7; for SIMDA-MB-231 (selectivity index): IC50 MCF-10A/IC50 MDA-MB-231
Procedure: Human breast cancer cells, i.e., MCF-7 (estrogen-dependent breast cancer cells) and MDA-MB-231 (estrogen-independent breast cancer cells), as well as normal human breast epithelial cells (MCF-10A) were purchased from the American Type Culture Collection (ATCC, Manassas, VA, USA). MCF-7 and MDA-MB-231 cells were cultured in DMEM (Sigma Aldrich, St. Louis, MO, USA) supplemented with 10% fetal bovine serum (FBS), penicillin (100 U/mL) and streptomycin (100 μg/mL). MCF-10A cells were cultured in Mammary Epithelial Cell Growth Medium supplemented with BPE, hEGF, insulin, hydrocortisone, GA-1000 (Lonza, Basel, Switzerland), 10% fetal bovine serum (FBS), penicillin (100 U/mL) and streptomycin (100 μg/mL). The cells were grown in T25 Cell Culture EasyFlask (Nunc, Roskilde, Denmark) at 37 °C in a humidified atmosphere of 5% CO2.
MTT assays were performed to evaluate the cytotoxic activity of the investigated compounds (1–3) against MCF-10A cells. Asuspension of cells (1 × 10^5 cells/mL) was distributed onto 96-well plates at a volume of 100 μL/well. After attachment, the cells were treated with increased concentrations of the tested compounds in medium containing 2% FBS, and incubated for 24 h. Then, 15 μL of MTT working solution (5 mg/mL in PBS) was added to each well and the plates were incubated for 3 h. Subsequently, 100 μL of 10% SDS solution was added to each well in order to dissolve the formazan formed. After overnight incubation at 37 °C, the absorbance of the obtained solution was measured at λ= 570 nm using a microplate reader (Epoch, BioTek Instruments, Inc., Winooski, VT, USA). At least two independent experiments were performed in triplicate. IC50 values of the tested compounds were calculated using the IC50 online calculator [27].

MCF-7 cells = test system: MCF-7 cells; set-up: method as in PMID 36345785; conditions: MTT; cited from earlier work

MAF MDR1 (multidrug resistance activity factor) [1] | MAF BCRP (BCRP in MDA-MB-231 cells; MDA-MB-231, 20 µg/mL) | MAF MDR1 ([2]; MDA-MB-231, 20 µg/mL) | MAF BCRP (BCRP in MCF-7 cells) | MAF BCRP (BCRP in MDA-MB-231 cells; MDA-MB-231, 10 µg/mL) | MAF MDR1 ([2]; MDA-MB-231, 10 µg/mL) | Structure (SMILES) | MAF MRP (MRP1/2 in MCF-7 cells) | IC50 (MDA-MB-231 cells) | IC50 MDA-MB-231 (MDA-MB-231 cells) | IC50 (MCF-10A cells) | SIMCF-7 (selectivity index) (MCF-10A cells) | SIMDA-MB-231 (selectivity index) (MCF-10A cells) | IC50 (MCF-7 cells) | IC50 MCF-7 (MCF-7 cells)
5.7 | < 20 | < 20 | 7.0 | – | – | O=C(NNC(=S)Nc1ccc(/N=N/c2ccccc2)cc1)c1ccccc1[N+](=O)[O-] [Compound 3] | 5.3 | 24.9 ± 1.74 µM | 10.47 ± 0.73 µg/mL (≈ 24.9 µM) | 40.5 µg/mL and 96.2 µM | 5.30 | 3.86 | 18.2 ± 1.36 µM | 7.67 ± 0.57 µg/mL (≈ 18.2 µM)
9.1 | 1.4 | 11.1 | 15.4 | 4.9 | 13.3 | O=C(Cc1cccc2ccccc12)NNC(=S)Nc1ccc(/N=N/c2ccccc2)cc1 [Compound 2] | 9.9 | 17.4 ± 0.93 µM | 7.64 ± 0.41 µg/mL (≈ 17.4 µM) | 42.7 µg/mL and 97.2 µM | 4.65 | 5.60 | 20.9 ± 0.59 µM | 9.18 ± 0.26 µg/mL (≈ 20.9 µM)
